Experimental data: ChEMBL document CHEMBL4359901, “Cyclic enaminone as new chemotype for selective cyclooxygenase-2 inhibitory, anti-inflammatory, and analgesic activities” (Eur J Med Chem, 2019)

Key:
[1] = Cardiotoxicity in Sprague-Dawley rat assessed as DBP rate at 50 mg/kg; format: toxicity, organism-based; conditions: in vivo
Rattus norvegicus [2] = experiment: Antiinflammatory activity in Sprague-Dawley rat model of carrageenan-induced thermal hyperalgesia assessed as paw withdrawal latency pressure at 50 mg/kg, po administered 1 hr prior to carrageenan challenge and measured after 1 hr by Randall-Selitto test (reference value: 246.55 +/- 1.05 g); format: functional
Rattus norvegicus [3] = experiment: Antiinflammatory activity in Sprague-Dawley rat model of carrageenan-induced thermal hyperalgesia assessed as paw withdrawal latency pressure at 50 mg/kg, po administered 1 hr prior to carrageenan challenge and measured after 5 hrs by Von-frey test (reference value: 169.58 +/- 4.26 g); format: functional
Rattus norvegicus [4] = experiment: Analgesic activity in Wistar albino rat assessed as reaction time at 12.5 mg/kg, ip measured after 180 mins for 15 secs by hot plate method (reference value: 3.87 +/- 0.38 sec); format: functional
Rattus norvegicus [5] = experiment: Antiinflammatory activity in Sprague-Dawley rat model of carrageenan-induced thermal hyperalgesia assessed as paw withdrawal latency time at 50 mg/kg, po administered 1 hr prior to carrageenan challenge and measured after 5 hrs by planter test (reference value: 7.5 +/- 0.74 sec); format: functional
Rattus norvegicus [6] = experiment: Antiinflammatory activity in Sprague-Dawley rat model of carrageenan-induced thermal hyperalgesia assessed as paw withdrawal latency pressure at 30 mg/kg, po administered 1 hr prior to carrageenan challenge and measured after 1 hr by Randall-Selitto test (reference value: 246.55 +/- 1.05 g); format: functional
Rattus norvegicus [7] = experiment: Antiinflammatory activity in Sprague-Dawley rat model of carrageenan-induced thermal hyperalgesia assessed as paw withdrawal latency pressure at 30 mg/kg, po administered 1 hr prior to carrageenan challenge and measured after 1 hr by Von-frey test (reference value: 159.88 +/- 4.66 g); format: functional
[8] = Antioxidant activity assessed as DPPH radical scavenging activity at 100 uM/ml incubated for 20 mins by spectrophotometric method relative to control; format: functional
Rattus norvegicus [9] = experiment: Antiinflammatory activity in Sprague-Dawley rat model of carrageenan-induced thermal hyperalgesia assessed as paw withdrawal latency time at 50 mg/kg, po administered 1 hr prior to carrageenan challenge and measured after 1 hr by planter test (reference value: 8.88 +/- 0.52 sec); format: functional
Rattus norvegicus [10] = experiment: Antiinflammatory activity in Sprague-Dawley rat model of carrageenan-induced thermal hyperalgesia assessed as paw withdrawal latency pressure at 50 mg/kg, po administered 1 hr prior to carrageenan challenge and measured after 3 hrs by Von-frey test (reference value: 146.61 +/- 1.58 g); format: functional
Rattus norvegicus [11] = experiment: Analgesic activity in Wistar albino rat assessed as reaction time at 12.5 mg/kg, ip measured after 120 mins for 15 secs by hot plate method (reference value: 4.32 +/- 0.52 sec); format: functional
Rattus norvegicus [12] = experiment: Antiinflammatory activity in Sprague-Dawley rat model of carrageenan-induced thermal hyperalgesia assessed as paw withdrawal latency pressure at 50 mg/kg, po administered 1 hr prior to carrageenan challenge and measured after 2 hrs by Randall-Selitto test (reference value: 231.13 +/- 3.15 g); format: functional
Rattus norvegicus [13] = experiment: Analgesic activity in Wistar albino rat assessed as reaction time at 25 mg/kg, ip measured after 60 mins for 15 secs by hot plate method (reference value: 4.67 +/- 0.52 sec); format: functional
Rattus norvegicus [14] = experiment: Analgesic activity in Wistar albino rat assessed as reaction time at 12.5 mg/kg, ip measured after 60 mins for 15 secs by hot plate method (reference value: 4.67 +/- 0.52 sec); format: functional
Rattus norvegicus [15] = experiment: Antiinflammatory activity in Sprague-Dawley rat model of carrageenan-induced thermal hyperalgesia assessed as paw withdrawal latency time at 30 mg/kg, po administered 1 hr prior to carrageenan challenge and measured after 2 hrs by planter test (reference value: 6.17 +/- 0.58 sec); format: functional
[16] = Antioxidant activity assessed as DPPH radical scavenging activity at 20 uM/ml incubated for 20 mins by spectrophotometric method relative to control; format: functional
Rattus norvegicus [17] = experiment: Antiinflammatory activity in Sprague-Dawley rat model of carrageenan-induced thermal hyperalgesia assessed as paw withdrawal latency pressure at 30 mg/kg, po administered 1 hr prior to carrageenan challenge and measured after 3 hrs by Von-frey test (reference value: 31.65 +/- 3.33 g); format: functional
Rattus norvegicus [18] = experiment: Antiinflammatory activity in Wistar albino rat assessed as reduction in carrageenan-induced paw edema at 25 mg/kg, ip measured after 2 hrs by plethysmometric method (reference value: 1.58 +/- 0.21 ml); format: functional
Rattus norvegicus [19] = experiment: Antiinflammatory activity in Sprague-Dawley rat model of carrageenan-induced thermal hyperalgesia assessed as paw withdrawal latency pressure at 30 mg/kg, po administered 1 hr prior to carrageenan challenge and measured after 4 hrs by Von-frey test (reference value: 146.61 +/- 1.58 g); format: functional
Rattus norvegicus [20] = experiment: Analgesic activity in Wistar albino rat assessed as reaction time at 25 mg/kg, ip measured after 120 mins for 15 secs by hot plate method (reference value: 4.32 +/- 0.52 sec); format: functional
Rattus norvegicus [21] = experiment: Antiinflammatory activity in Sprague-Dawley rat model of carrageenan-induced thermal hyperalgesia assessed as paw withdrawal latency pressure at 30 mg/kg, po administered 1 hr prior to carrageenan challenge and measured after 4 hrs by Randall-Selitto test (reference value: 200.08 +/- 10.22 g); format: functional
Rattus norvegicus [22] = experiment: Antiinflammatory activity in Sprague-Dawley rat model of carrageenan-induced thermal hyperalgesia assessed as paw withdrawal latency time at 30 mg/kg, po administered 1 hr prior to carrageenan challenge and measured after 5 hrs by planter test (reference value: 7.5 +/- 0.74 sec); format: functional
Rattus norvegicus [23] = experiment: Antiinflammatory activity in Sprague-Dawley rat model of carrageenan-induced thermal hyperalgesia assessed as paw withdrawal latency pressure at 50 mg/kg, po administered 1 hr prior to carrageenan challenge and measured after 3 hrs by Von-frey test (reference value: 31.65 +/- 3.33 g); format: functional
Rattus norvegicus [24] = experiment: Antiinflammatory activity in Wistar albino rat assessed as reduction in carrageenan-induced paw volume at 12.5 mg/kg, ip measured after 3 hrs by plethysmometric method (reference value: 1.75 +/- 0.33 ml); format: functional
Rattus norvegicus [25] = experiment: Antiinflammatory activity in Sprague-Dawley rat model of carrageenan-induced thermal hyperalgesia assessed as paw withdrawal latency pressure at 50 mg/kg, po administered 1 hr prior to carrageenan challenge and measured after 2 hrs by Von-frey test (reference value: 146.47 +/- 5.12 g); format: functional
[26] = Antioxidant activity assessed as DPPH radical scavenging activity at 80 uM/ml incubated for 20 mins by spectrophotometric method relative to control; format: functional
Rattus norvegicus [27] = experiment: Antiinflammatory activity in Sprague-Dawley rat model of carrageenan-induced thermal hyperalgesia assessed as paw withdrawal latency time at 50 mg/kg, po administered 1 hr prior to carrageenan challenge and measured after 2 hrs by planter test (reference value: 6.17 +/- 0.58 sec); format: functional
Rattus norvegicus [28] = experiment: Antiinflammatory activity in Sprague-Dawley rat model of carrageenan-induced thermal hyperalgesia assessed as paw withdrawal latency pressure at 30 mg/kg, po administered 1 hr prior to carrageenan challenge and measured after 2 hrs by Von-frey test (reference value: 146.47 +/- 5.12 g); format: functional

Compound: CC(=O)N(C1=CC(=O)CCC1)c1ccc(Cl)cc1
- Activity [1]: Non-Toxic
- Activity (Rattus norvegicus [2]): 272.83 g
- Activity (Rattus norvegicus [3]): 168.65 g
- Time (Rattus norvegicus [4]): 8.22 s
- Time (Rattus norvegicus [5]): 9.3 s
- Activity (Rattus norvegicus [6]): 261.72 g
- Activity (Rattus norvegicus [7]): 166.7 g
- Activity [8]: 96.2%
- Time (Rattus norvegicus [9]): 12.25 s
- Activity (Rattus norvegicus [10]): 169.23 g
- Time (Rattus norvegicus [11]): 10.15 s
- Activity (Rattus norvegicus [12]): 268.96 g
- Time (Rattus norvegicus [13]): 7.27 s
- Time (Rattus norvegicus [14]): 6.85 s
- Time (Rattus norvegicus [15]): 8.01 s
- Activity [16]: 22.4%
- Activity (Rattus norvegicus [17]): 152.92 g
- Activity (Rattus norvegicus [18]): 1.2 mL
- Activity (Rattus norvegicus [19]): 159.47 g
- Time (Rattus norvegicus [20]): 11.58 s
- Activity (Rattus norvegicus [21]): 258.94 g
- Time (Rattus norvegicus [22]): 6.37 s
- Activity (Rattus norvegicus [23]): 166.86 g
- Activity (Rattus norvegicus [24]): 1.18 mL
- Activity (Rattus norvegicus [25]): 168.03 g
- Activity [26]: 83.9%
- Time (Rattus norvegicus [27]): 9.67 s
- Activity (Rattus norvegicus [28]): 157.83 g
